Experimental data as given in ChEMBL document CHEMBL4507282, “Data for DCP probe BI-1950” (2021).

What was measured:
[1] = molecular target: Uncharacterized serine/threonine-protein kinase SBK3 (Homo sapiens) (UniProt P0C264); conditions: Compound concentration 1000.0 nM
[2] = molecular target: Receptor tyrosine-protein kinase erbB-4 (Homo sapiens) (UniProt Q15303); conditions: Compound concentration 1000.0 nM
[3] = molecular target: D(1A) dopamine receptor (Homo sapiens) (UniProt P21728); conditions: Compound concentration 10.0 uM
[4] = molecular target: Non-receptor tyrosine-protein kinase TYK2 (Homo sapiens) (UniProt P29597); conditions: Compound concentration 1000.0 nM
[5] = molecular target: G protein-coupled receptor kinase 4 (Homo sapiens) (UniProt P32298); conditions: Compound concentration 1000.0 nM
[6] = molecular target: Calcium/calmodulin-dependent protein kinase kinase 1 (Homo sapiens) (UniProt Q8N5S9); conditions: Compound concentration 1000.0 nM
[7] = molecular target: Bone morphogenetic protein receptor type-1A (Homo sapiens) (UniProt P36894); conditions: Compound concentration 1000.0 nM
[8] = molecular target: Ephrin type-A receptor 8 (Homo sapiens) (UniProt P29322); conditions: Compound concentration 1000.0 nM
[9] = molecular target: Ephrin type-A receptor 4 (Homo sapiens) (UniProt P54764); conditions: Compound concentration 1000.0 nM
[10] = molecular target: Tyrosine-protein kinase Lck (Homo sapiens) (UniProt P06239); conditions: Compound concentration 1000.0 nM
[11] = tested on: Tyrosine-protein kinase ABL1 (Homo sapiens), P00519 [T315I]; conditions: Compound concentration 1000.0 nM
[12] = molecular target: 5-hydroxytryptamine receptor 2C (Homo sapiens) (UniProt P28335); conditions: Compound concentration 10.0 uM
[13] = molecular target: Cytoplasmic tyrosine-protein kinase BMX (Homo sapiens) (UniProt P51813); conditions: Compound concentration 1000.0 nM
[14] = molecular target: Inhibitor of nuclear factor kappa-B kinase subunit beta (Homo sapiens) (UniProt O14920); conditions: Compound concentration 1000.0 nM
[15] = molecular target: Casein kinase I isoform gamma-1 (Homo sapiens) (UniProt Q9HCP0); conditions: Compound concentration 1000.0 nM
[16] = molecular target: Serine/threonine-protein kinase haspin (Homo sapiens) (UniProt Q8TF76); conditions: Compound concentration 1000.0 nM
[17] = molecular target: Citron Rho-interacting kinase (Homo sapiens) (UniProt O14578); conditions: Compound concentration 1000.0 nM
[18] = tested on: Phosphatidylinositol 4,5-bisphosphate 3-kinase catalytic subunit alpha isoform (Homo sapiens), P42336 [Q546K]; conditions: Compound concentration 1000.0 nM
[19] = molecular target: 5-hydroxytryptamine receptor 5A (Homo sapiens) (UniProt P47898); conditions: Compound concentration 10.0 uM
[20] = molecular target: Angiopoietin-1 receptor (Homo sapiens) (UniProt Q02763); conditions: Compound concentration 1000.0 nM
[21] = molecular target: Serine/threonine-protein kinase ULK3 (Homo sapiens) (UniProt Q6PHR2); conditions: Compound concentration 1000.0 nM
[22] = molecular target: Mitogen-activated protein kinase 1 (Homo sapiens) (UniProt P28482); conditions: Compound concentration 1000.0 nM
[23] = molecular target: Serine/threonine-protein kinase pim-1 (Homo sapiens) (UniProt P11309); conditions: Compound concentration 1000.0 nM
[24] = tested on: Epidermal growth factor receptor (Homo sapiens), P00533 [T790M]; conditions: Compound concentration 1000.0 nM
[25] = molecular target: Phosphatidylinositol 4-kinase beta (Homo sapiens) (UniProt Q9UBF8); conditions: Compound concentration 1000.0 nM
[26] = molecular target: Dual specificity mitogen-activated protein kinase kinase 1 (Homo sapiens) (UniProt Q02750); conditions: Compound concentration 1000.0 nM
[27] = molecular target: Serine/threonine-protein kinase ICK (Homo sapiens) (UniProt Q9UPZ9); conditions: Compound concentration 1000.0 nM
[28] = molecular target: Wee1-like protein kinase 2 (Homo sapiens) (UniProt P0C1S8); conditions: Compound concentration 1000.0 nM
[29] = molecular target: Ephrin type-B receptor 3 (Homo sapiens) (UniProt P54753); conditions: Compound concentration 1000.0 nM
[30] = molecular target: Beta-1 adrenergic receptor (Homo sapiens) (UniProt P08588); conditions: Compound concentration 10.0 uM
[31] = molecular target: Cyclin-dependent kinase 7 (Homo sapiens) (UniProt P50613); conditions: Compound concentration 1000.0 nM
[32] = molecular target: Serine/threonine-protein kinase RIO2 (Homo sapiens) (UniProt Q9BVS4); conditions: Compound concentration 1000.0 nM
[33] = molecular target: Serine/threonine-protein kinase PAK 3 (Homo sapiens) (UniProt O75914); conditions: Compound concentration 1000.0 nM
[34] = molecular target: Dual serine/threonine and tyrosine protein kinase (Homo sapiens) (UniProt Q6XUX3); conditions: Compound concentration 1000.0 nM
[35] = molecular target: Mast/stem cell growth factor receptor Kit (Homo sapiens) (UniProt P10721); conditions: Compound concentration 1000.0 nM
[36] = molecular target: G protein-coupled receptor kinase 3 (Homo sapiens) (UniProt P35626); conditions: Compound concentration 1000.0 nM
[37] = molecular target: Mitogen-activated protein kinase kinase kinase 10 (Homo sapiens) (UniProt Q02779); conditions: Compound concentration 1000.0 nM
[38] = molecular target: Serine/threonine-protein kinase/endoribonuclease IRE1 (Homo sapiens) (UniProt O75460); conditions: Compound concentration 1000.0 nM
[39] = molecular target: Serine/threonine-protein kinase PLK4 (Homo sapiens) (UniProt O00444); conditions: Compound concentration 1000.0 nM
[40] = molecular target: Ephrin type-B receptor 6 (Homo sapiens) (UniProt O15197); conditions: Compound concentration 1000.0 nM
[41] = molecular target: GABA-A receptor; anion channel (Rattus norvegicus) (UniProt O09028+P15431+P18506+P18508+P19969+P20236+P23574+P23576+P28471+P28473+P30191+P62813+P63079+P63138+Q91ZM7+Q9ES14); conditions: Compound concentration 10.0 uM
[42] = molecular target: Protein kinase C delta type (Homo sapiens) (UniProt Q05655); conditions: Compound concentration 1000.0 nM
[43] = molecular target: Ribosomal protein S6 kinase alpha-3 (Homo sapiens) (UniProt P51812); conditions: Compound concentration 1000.0 nM
[44] = molecular target: Tyrosine-protein kinase BTK (Homo sapiens) (UniProt Q06187); conditions: Compound concentration 1000.0 nM

Sequence of 5-hydroxytryptamine receptor 5A (Homo sapiens) (P47898 whole entry): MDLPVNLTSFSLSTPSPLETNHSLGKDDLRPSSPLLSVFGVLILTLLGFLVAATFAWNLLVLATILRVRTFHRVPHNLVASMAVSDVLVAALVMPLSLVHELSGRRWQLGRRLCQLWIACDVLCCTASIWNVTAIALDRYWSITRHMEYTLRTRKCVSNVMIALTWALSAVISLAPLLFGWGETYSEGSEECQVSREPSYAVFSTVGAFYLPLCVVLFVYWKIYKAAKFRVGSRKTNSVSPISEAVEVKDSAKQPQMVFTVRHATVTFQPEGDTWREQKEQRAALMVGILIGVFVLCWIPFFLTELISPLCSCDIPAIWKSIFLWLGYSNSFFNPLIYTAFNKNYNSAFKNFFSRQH
Sequence of Wee1-like protein kinase 2 (Homo sapiens) (P0C1S8 whole entry, looked up): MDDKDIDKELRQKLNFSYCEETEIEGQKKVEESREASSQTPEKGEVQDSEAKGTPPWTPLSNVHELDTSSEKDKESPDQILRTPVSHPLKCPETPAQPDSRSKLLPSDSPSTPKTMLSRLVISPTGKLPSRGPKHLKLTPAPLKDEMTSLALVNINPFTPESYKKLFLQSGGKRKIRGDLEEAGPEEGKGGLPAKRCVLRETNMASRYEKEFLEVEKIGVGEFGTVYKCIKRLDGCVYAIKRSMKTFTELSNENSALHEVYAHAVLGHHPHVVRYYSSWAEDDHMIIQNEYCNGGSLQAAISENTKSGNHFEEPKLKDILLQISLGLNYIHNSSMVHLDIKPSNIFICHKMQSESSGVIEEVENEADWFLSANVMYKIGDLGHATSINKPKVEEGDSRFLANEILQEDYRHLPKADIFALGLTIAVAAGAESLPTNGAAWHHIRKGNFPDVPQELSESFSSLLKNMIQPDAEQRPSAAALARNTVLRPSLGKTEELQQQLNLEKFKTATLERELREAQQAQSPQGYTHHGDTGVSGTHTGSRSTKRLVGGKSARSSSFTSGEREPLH
Sequence of Bone morphogenetic protein receptor type-1A (Homo sapiens) (P36894 whole entry): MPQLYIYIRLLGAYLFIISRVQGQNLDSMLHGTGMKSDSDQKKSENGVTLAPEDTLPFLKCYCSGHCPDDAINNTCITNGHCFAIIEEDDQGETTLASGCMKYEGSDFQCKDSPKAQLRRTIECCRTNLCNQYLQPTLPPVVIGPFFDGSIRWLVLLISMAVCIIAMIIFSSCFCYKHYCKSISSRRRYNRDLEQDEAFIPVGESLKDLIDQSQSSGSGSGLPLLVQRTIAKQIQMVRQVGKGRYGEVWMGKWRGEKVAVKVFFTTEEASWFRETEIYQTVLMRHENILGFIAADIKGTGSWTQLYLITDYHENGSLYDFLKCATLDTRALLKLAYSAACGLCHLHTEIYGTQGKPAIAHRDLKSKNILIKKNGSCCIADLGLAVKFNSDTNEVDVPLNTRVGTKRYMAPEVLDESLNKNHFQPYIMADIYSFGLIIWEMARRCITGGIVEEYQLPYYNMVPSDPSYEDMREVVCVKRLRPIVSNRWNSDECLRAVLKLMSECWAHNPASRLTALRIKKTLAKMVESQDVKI
Sequence of D(1A) dopamine receptor (Homo sapiens) (P21728 whole entry): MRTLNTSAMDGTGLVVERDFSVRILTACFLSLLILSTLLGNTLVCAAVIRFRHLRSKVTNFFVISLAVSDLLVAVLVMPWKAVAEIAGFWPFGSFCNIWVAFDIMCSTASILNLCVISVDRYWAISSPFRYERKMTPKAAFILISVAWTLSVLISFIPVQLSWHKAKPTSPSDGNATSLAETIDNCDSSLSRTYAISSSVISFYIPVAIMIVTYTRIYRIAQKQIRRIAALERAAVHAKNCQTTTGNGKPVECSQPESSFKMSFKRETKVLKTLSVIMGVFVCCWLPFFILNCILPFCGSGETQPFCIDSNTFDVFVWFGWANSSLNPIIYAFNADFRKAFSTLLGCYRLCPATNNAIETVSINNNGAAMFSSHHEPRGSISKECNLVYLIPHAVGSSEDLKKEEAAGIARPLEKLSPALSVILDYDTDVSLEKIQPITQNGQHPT
Sequence of Phosphatidylinositol 4-kinase beta (Homo sapiens) (Q9UBF8 2-816 limits assumed): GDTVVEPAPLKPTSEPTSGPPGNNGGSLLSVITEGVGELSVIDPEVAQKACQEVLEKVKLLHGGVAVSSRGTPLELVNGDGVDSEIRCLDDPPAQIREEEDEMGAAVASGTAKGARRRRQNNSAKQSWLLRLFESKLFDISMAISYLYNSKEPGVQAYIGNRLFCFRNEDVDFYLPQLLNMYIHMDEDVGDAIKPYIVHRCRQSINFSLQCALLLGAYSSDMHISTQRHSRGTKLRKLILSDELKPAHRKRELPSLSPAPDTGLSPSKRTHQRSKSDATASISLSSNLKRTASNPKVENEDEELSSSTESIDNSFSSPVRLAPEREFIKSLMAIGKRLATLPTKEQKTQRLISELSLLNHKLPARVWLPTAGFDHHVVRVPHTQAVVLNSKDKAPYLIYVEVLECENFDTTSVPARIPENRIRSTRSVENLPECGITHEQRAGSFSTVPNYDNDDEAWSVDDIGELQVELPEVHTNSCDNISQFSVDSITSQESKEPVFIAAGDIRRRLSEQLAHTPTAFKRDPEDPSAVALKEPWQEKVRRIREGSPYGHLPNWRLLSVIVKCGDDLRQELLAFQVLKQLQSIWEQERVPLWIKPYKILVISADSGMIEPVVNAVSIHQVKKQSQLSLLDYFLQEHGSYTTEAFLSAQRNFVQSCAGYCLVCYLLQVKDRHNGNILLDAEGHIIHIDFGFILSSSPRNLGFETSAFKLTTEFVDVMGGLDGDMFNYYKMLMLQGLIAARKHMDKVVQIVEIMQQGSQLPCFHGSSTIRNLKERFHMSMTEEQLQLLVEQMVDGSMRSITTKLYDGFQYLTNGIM
Sequence of G protein-coupled receptor kinase 4 (Homo sapiens) (P32298 whole entry, looked up): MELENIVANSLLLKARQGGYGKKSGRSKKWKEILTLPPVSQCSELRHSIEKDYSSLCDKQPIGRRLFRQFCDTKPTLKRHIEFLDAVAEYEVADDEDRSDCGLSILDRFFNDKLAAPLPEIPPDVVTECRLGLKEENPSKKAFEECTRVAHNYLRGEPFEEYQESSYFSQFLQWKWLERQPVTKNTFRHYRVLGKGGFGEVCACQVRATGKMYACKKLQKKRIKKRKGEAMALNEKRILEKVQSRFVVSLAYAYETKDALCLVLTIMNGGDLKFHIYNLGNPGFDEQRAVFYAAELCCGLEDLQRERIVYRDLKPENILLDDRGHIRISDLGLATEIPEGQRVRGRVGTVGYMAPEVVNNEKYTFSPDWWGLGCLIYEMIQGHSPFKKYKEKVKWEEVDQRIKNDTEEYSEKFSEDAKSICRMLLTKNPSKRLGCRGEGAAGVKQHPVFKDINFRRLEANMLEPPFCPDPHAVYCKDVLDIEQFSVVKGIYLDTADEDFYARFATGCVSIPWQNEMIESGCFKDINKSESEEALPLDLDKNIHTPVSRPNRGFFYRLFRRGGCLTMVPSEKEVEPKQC
Sequence of Ephrin type-A receptor 8 (Homo sapiens) (P29322 whole entry): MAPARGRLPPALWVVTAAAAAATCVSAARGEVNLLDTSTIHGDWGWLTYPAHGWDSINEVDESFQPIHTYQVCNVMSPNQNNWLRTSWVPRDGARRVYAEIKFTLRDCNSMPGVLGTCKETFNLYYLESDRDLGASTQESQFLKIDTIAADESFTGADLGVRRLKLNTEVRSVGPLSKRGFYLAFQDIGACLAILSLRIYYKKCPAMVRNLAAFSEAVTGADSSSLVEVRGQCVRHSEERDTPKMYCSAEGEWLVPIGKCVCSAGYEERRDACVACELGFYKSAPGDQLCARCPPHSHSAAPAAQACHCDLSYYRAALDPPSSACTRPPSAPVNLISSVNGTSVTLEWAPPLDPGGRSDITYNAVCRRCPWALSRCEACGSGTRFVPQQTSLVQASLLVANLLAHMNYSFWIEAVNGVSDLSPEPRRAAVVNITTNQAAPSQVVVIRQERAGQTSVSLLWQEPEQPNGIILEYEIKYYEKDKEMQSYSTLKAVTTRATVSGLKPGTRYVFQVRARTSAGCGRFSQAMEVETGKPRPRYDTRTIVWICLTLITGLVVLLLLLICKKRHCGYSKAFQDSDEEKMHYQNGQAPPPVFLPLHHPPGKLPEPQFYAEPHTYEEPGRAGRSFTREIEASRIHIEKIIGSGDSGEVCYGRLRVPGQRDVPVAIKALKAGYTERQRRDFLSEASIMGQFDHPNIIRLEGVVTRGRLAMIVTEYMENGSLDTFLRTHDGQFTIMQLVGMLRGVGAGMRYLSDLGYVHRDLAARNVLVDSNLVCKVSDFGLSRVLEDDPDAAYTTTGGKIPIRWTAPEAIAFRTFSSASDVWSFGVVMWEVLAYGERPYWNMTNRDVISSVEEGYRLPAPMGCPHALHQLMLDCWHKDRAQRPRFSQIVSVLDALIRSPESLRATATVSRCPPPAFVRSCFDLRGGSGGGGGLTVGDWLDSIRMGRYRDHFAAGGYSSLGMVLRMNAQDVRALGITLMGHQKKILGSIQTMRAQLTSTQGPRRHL
Sequence of Tyrosine-protein kinase Lck (Homo sapiens) (P06239 2-509 limits assumed): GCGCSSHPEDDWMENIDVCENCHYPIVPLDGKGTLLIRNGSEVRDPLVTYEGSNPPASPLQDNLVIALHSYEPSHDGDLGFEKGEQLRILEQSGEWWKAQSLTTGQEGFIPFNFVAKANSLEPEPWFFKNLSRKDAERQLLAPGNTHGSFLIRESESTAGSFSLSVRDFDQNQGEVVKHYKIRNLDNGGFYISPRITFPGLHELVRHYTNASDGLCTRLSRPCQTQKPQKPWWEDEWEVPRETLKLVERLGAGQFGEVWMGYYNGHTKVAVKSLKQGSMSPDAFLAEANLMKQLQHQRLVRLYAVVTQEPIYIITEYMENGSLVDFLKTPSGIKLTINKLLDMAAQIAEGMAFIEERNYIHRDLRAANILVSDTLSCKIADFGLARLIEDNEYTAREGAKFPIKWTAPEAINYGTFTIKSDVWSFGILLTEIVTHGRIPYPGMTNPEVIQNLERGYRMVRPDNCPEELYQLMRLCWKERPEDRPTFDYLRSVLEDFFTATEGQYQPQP

SMILES: C[C@@]1(Cc2ccc(C#N)cc2)C(=O)N(c2cc(Cl)cc(Cl)c2)c2ncc(C(=O)NC3(c4nc(C5CCC5)no4)CC3)n21 [BI 9446]
- residual activity [1]: 100%
- residual activity [2]: 100%
- inhibition [3]: 18.6%
- residual activity [4]: 100%
- residual activity [5]: 100%
- residual activity [6]: 100%
- residual activity [7]: 100%
- residual activity [8]: 100%
- residual activity [9]: 100%
- residual activity [10]: 100%
- residual activity [11]: 100%
- inhibition [12]: 32.9%
- residual activity [13]: 40%
- residual activity [14]: 100%
- residual activity [15]: 92%
- residual activity [16]: 100%
- residual activity [17]: 100%
- residual activity [18]: 88%
- inhibition [19]: 2.14%
- residual activity [20]: 92%
- residual activity [21]: 100%
- residual activity [22]: 100%
- residual activity [23]: 100%
- residual activity [24]: 86%
- residual activity [25]: 100%
- residual activity [26]: 97%
- residual activity [27]: 100%
- residual activity [28]: 100%
- residual activity [29]: 99%
- inhibition [30]: 29.7%
- residual activity [31]: 100%
- residual activity [32]: 100%
- residual activity [33]: 100%
- residual activity [34]: 95%
- residual activity [35]: 100%
- residual activity [36]: 100%
- residual activity [37]: 100%
- residual activity [38]: 82%
- residual activity [39]: 90%
- residual activity [40]: 100%
- inhibition [41]: -8.68%
- residual activity [42]: 100%
- residual activity [43]: 100%
- residual activity [44]: 100%

SMILES: C[C@H](NC(=O)c1cnc2n1[C@](C)(Cc1ccc(C#N)cc1)C(=O)N2c1cc(Cl)c(F)c(Cl)c1)C(=O)NC1(c2ccccn2)CC1 [BI 1950]
- residual activity [1]: 100%
- residual activity [2]: 100%
- inhibition [3]: 1.26%
- residual activity [4]: 100%
- residual activity [5]: 100%
- residual activity [6]: 100%
- residual activity [7]: 98%
- residual activity [8]: 100%
- residual activity [9]: 100%
- residual activity [10]: 100%
- residual activity [11]: 100%
- inhibition [12]: 24.3%
- residual activity [13]: 77%
- residual activity [14]: 90%
- residual activity [15]: 99%
- residual activity [16]: 100%
- residual activity [17]: 100%
- residual activity [18]: 97%
- inhibition [19]: 6.14%
- residual activity [20]: 91%
- residual activity [21]: 100%
- residual activity [22]: 100%
- residual activity [23]: 100%
- residual activity [24]: 95%
- residual activity [25]: 100%
- residual activity [26]: 92%
- residual activity [27]: 100%
- residual activity [28]: 100%
- residual activity [29]: 100%
- inhibition [30]: 24.1%
- residual activity [31]: 94%
- residual activity [32]: 100%
- residual activity [33]: 100%
- residual activity [34]: 87%
- residual activity [35]: 100%
- residual activity [36]: 100%
- residual activity [37]: 100%
- residual activity [38]: 96%
- residual activity [39]: 88%
- residual activity [40]: 100%
- inhibition [41]: -4.17%
- residual activity [42]: 100%
- residual activity [43]: 100%
- residual activity [44]: 100%
